From US20260356814A1, “INDOLINE DERIVATIVES AS SEROTONERGIC AGENTS USEFUL FOR THE TREATMENT OF DISORDERS RELATED THERETO” (MINDSET PHARMA INC., priority 2022, published 2026)

Experiments:
[1] = target: T1, human 5-HT2A (h5-HT2A) receptor (Homo sapiens, UniProt P28223); assay: FLIPR assay: human 5-HT2A (agonist mode); assay type: cell-based; settings: for RFU@10 μM: @10 μM (head), footnote: curve fitting with activation (%) @ 10 mM with RFU, RFU=Fmax−Fmin; for EC50: FLIPR calcium, agonist mode, HTR2A&Gα15-HEK293 cells, ND: not detected
T1 construct: expressed in transfected cells; host or cells: HEK293 (HTR2A&Ga15-HEK293, tetracycline-induced)
T1 sequence (P28223 whole entry): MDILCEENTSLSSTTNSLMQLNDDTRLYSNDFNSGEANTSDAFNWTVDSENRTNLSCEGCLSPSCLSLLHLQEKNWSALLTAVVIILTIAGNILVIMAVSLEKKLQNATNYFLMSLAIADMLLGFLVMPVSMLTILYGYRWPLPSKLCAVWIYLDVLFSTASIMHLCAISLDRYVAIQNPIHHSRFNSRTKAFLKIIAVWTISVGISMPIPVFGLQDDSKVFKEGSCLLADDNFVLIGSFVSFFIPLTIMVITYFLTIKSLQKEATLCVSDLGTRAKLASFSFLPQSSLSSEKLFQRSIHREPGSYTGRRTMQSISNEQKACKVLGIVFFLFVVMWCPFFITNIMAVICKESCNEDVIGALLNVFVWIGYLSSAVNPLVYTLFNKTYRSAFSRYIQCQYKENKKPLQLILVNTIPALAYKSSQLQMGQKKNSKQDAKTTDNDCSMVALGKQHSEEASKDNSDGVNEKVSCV
Experimental: Assessment of the effect of exemplary compounds of Formula I targeting on human 5-HT2A (h5-HT2A) receptor under agonist mode.
HTR2A&Ga15-HEK293 cells were cultured in DMEM medium containing 10% dialyzed FBS and 1x penicillin-streptomycin, 100 μg/mL Hygromycin B and 300 μg/mL G418. The cells were passaged about three times a week, maintained between ~30% to ~90% confluence.
• 1. The cell culture medium (DMEM medium containing 10% dialyzed FBS and 1× penicillin-streptomycin, 100 μg/mL Hygromycin B and 300 μg/mL G418), TrypLE™ Express and DPBS to R.T. was warmed in advance. • 2. For induction, 1 μg/ml tetracycline (final concentration) was added to cell culture medium and incubated for 48 hours prior to seeding cells into plate at 37° C., 5% (v/v) CO2. The cell culture medium was removed from flask. Cells were washed with DPBS. • 3. 2 mL TrypLE™ Express was added to the flask, mixed well by gentle shaking and cells were incubated at 37° C. for a few minutes. • The cells were checked for morphological change under microscope, the digestion was stopped by adding 4 mL cell culture medium to the flask when most of cells turned to round. • 5. The cell suspension was transferred into a 15 mL centrifuge tube, and then centrifuged at 1,200 rpm for 5 minutes. • 6. The supernatant was removed. The cell pellet was resuspended with 2 mL cell culture medium. • 7. The cell density was counted using cell counter. Only cells with >85% viability were used for the assay. • 8. Cells were diluted to 6.67×10^5/mL with cell culture medium. • 9. 30 μL/well cell suspensions added into a 384-well cell plate (The cell density was 20,000 cells/well). • 10. The cell plate was incubated overnight at 37° C., 5% (v/v) CO2. 2.3 Cell handling • 1. On the day of experiments, culture medium was removed from the cell plate. • 2. 10 μL of assay buffer (20 mM HEPES, in 1×HBSS, pH 7.4) was added to each well of the cell plate. • 3. 2×dye solution was prepared following the manual of the FLIPR® Calcium 6 Assay Kit: • i. The dye was diluted with assay buffer. • ii. Probenecid was added to the final concentration of 5 mM. • iii. Vortexed vigorously for 1-2 minutes. • 4. 10 μL of 2× dye solution was added to each well of the cell plate • 5. The cell plate was placed on plate shaker, followed by shaking at 600 rpm for 2 minutes. • 6. The plate was incubated at 37° C. for 2 hours followed by an additional 15-minute incubation at 25° C. 2.4 Prepare 3×compound • 1. Serotonin HCl was prepared to the concentration of 10 mM with DMSO. • 2. The test compounds were prepared to the concentration of 10 mM with DMSO. • 3. The compounds were added to a 384-well compound source plate. • 4. 3-folds serial dilutions were performed with DMSO. • 5. 90 nL/well of serial diluted compounds was transferred from source plate to a 384-well compound plate by using an Echo. • 6. 30 μL/well of assay buffer (20 mM HEPES in 1x HBSS, pH 7.4) was added to the compound plate. • 7. The plate was mixed on-plate shaker for 2 minutes.
• 1. After the cells were incubated with dye solution, the cell plate, compound plate containing 3×compounds and FLIPR tips were placed into FLIPR. • 2. 10 μL of 3×compounds transferred from the compound plate to the cell plate by FLIPR. • 3. The plate was read for 160 sec with 1 sec interval and the data of agonist mode was obtained.
• 1. The normalized fluorescence reading (RFU) was calculated as shown below, wherein Fmax and Fmin stand for maximum and minimum of calcium signal during defined time window:
RFU=Fmax−Fmin • 2. EC50 by fitting RFU against log of compound concentrations with Hill equation was calculated using XLfit.
The following procedure can also be followed: • 1. Cells are cultured in cell culture medium (DMEM containing 10% FBS, 1× penicillin-streptomycin 300 μg/ml G418 and 100 μg/ml hygromycin B) at 37° C., 5% (v/V) CO2. • 2. One day before the assays, the cells are detached using TrypLE™ Express and cells are counted using cell counter.

[2] = target: human 5-HT2A receptor (Homo sapiens, UniProt P28223); assay: Human 5-HT2A: Radioligand binding assay ([3H]-ketanserin); settings: [3H]-ketanserin displacement, 27° C., 90 min, pH 7.4; read-out: h5-HT2A, IC50
human 5-HT2A receptor, sequence (P28223 whole entry): as above
Experimental: Exemplary compounds of Formula I were evaluated functionally using FLIPR assay for their effect on h5-HT2A receptor under agonist mode. The objective of this study was to evaluate the binding properties of exemplary compounds of Formula I on 5-hydroxytryptamine receptor 2A (5-HT2A). • Human 5-HT2A: Radioligand binding assay:
• i. The assay buffer was prepared following the table below.
• Adjust pH to 7.4 followed by […] sterile filtration • ii. 8 doses of reference and test compounds starting from 10 mM stock solution as required was prepared by 5-fold serial dilutions with 100% (v/v) DMSO. • iii. UniFilter-96 GF/B plate was pretreated: • a. 50 μl/well of 0.5% (v/v) PEI was added to UniFilter-96 […] plates. The plates were sealed and incubated at 4° C. for 3 hrs. • b. After incubation, the plates were washed 3 times with ice-cold wash buffer (50 mM Tris, pH7.4). • iv. The assay plate was prepared: • a. Cell membrane was diluted with assay buffer and 330 μl/well was added to 96 round deep well plates to reach a concentration of 20 μg/well. • b. 8 concentrations of reference or test compounds were prepared and 110 μl/well was added to 96 round deep well plates. • c. [3H]-ketanserin was diluted with assay buffer to 5 nM (5X final concentration) and 110 μl/well was added to 96 round deep well plates. • v. The plate was centrifuged at 1000 rpm for 30 secs and then agitated at 600 rpm, R.T. for 5 min. • vi. The plates were sealed and the plate incubated at 27° C. for 90 min. • vii. The incubation was stopped by vacuum filtration onto GF/B filter plates followed by 4 times washing with ice-cold wash buffer (50 mM Tris, pH7.4). • viii. The plates were dried at 37° C. for 45 min. • ix. The filter plates were sealed and 40 μl/well of scintillation cocktail was added. • x. The plate was read by using a Microbeta2 microplate counter.
• 1. For reference and test compounds, the results were expressed as % Inhibition, using the normalization equation: N=100−100×(U−C2)/(C1-C2), where U is the unknown value, C1 is the average of high controls, and C2 is the average of low controls. • 2. The IC50 was determined by fitting percentage of inhibition as a function of compound concentrations with Hill equation using XLfit.

SMILES	RFU@10 μM [1] [RFU]	EC50 [1] [µM]	IC50 [2] [µM]
COc1cccc2c1N(C[C@H]1CCCN1C)CC2 [(R)-I-46, (R)-7-Methoxy-1-((1-methylpyrrolidin-2-yl)methyl) indoline]	487	1.14	2.46
[2H]C([2H])([2H])N(CCN1CCc2ccccc21)C([2H])([2H])[2H] [Compound I-71, 2-(Indolin-1-yl)-N,N-bis(methyl-d3) ethan-1-amine]	280		15
COc1ccc2c(c1)N(C[C@H]1CCCN1C)CC2 [(R)-I-58, (R)-6-Methoxy-1-((1-methylpyrrolidin-2-yl)methyl) indoline]	796	0.322	6.53
COc1cccc2c1CCN2C[C@H]1CCCN1C [(R)-I-47, (R)-4-Methoxy-1-((1-methylpyrrolidin-2-yl)methyl) indoline]	174		> 30
COc1ccc2c(c1)N(C[C@H]1CCCN1)CC2 [(R)-I-59, (R)-6-Methoxy-1-(pyrrolidin-2-ylmethyl) indoline]	801	1.21	15.3
[2H]C([2H])([2H])N1CCC[C@@H]1C([2H])([2H])N1CCc2ccccc21 [(R)-I-1, (R)-1-((1-(Methyl-d3)pyrrolidin-2-yl)methyl-d2) indoline]	386	3.55	4.53
COc1cc2c(cc1OC)N(C[C@H]1CCCN1C)CC2 [(R)-I-34, (R)-5,6-dimethoxy-1-((1-methylpyrrolidin-2-yl)methyl) indoline]	268		> 30
[2H]C([2H])([2H])N1CCC[C@@H]1C([2H])([2H])N1CCc2ccc(OC)cc21 [(R)-I-57, (R)-6-Methoxy-1-((1-(methyl-d3)pyrrolidin-2-yl)methyl-d2) indoline]	749	0.422	7.96
[2H]C([2H])([2H])N(CCN1CCc2ccc(OC)cc21)C([2H])([2H])[2H] [Compound I-70, 2-(6-Methoxyindolin-1-yl)-N, N-bis(methyl-d3) ethan-1-amine]	303		25.8
[2H]C([2H])([2H])Oc1ccc2c(c1)N(C([2H])([2H])[C@H]1CCCN1C([2H])([2H])[2H])CC2 [(R)-I-28, (R)-6-(Methoxy-d3)-1-((1-(methyl-d3)pyrrolidin-2-yl)methyl-d2) indoline]	3744	1.09	8.48
